In PubChem BioAssay AID2253 (Southern Research Specialized Biocontainment Screening …, 2010) one finds EC50 data, which are given here for 94 compounds.

Where “and” joins values, the source holds several entries; their conditions need not be identical. Equal entries are not always repeated.

This experiment deals with THP-1 viability, CellTiter-Glo luminescence, 72 h. The experiment can be described thus: human monocytic cell viability reduction – S. typhimurium screen hits, cytotoxicity control for Salmonella PhoP regulon inhibitors, dose response (AID 2253).

Take `O=c1[nH][nH]c(-c2ccccc2O)c1C(C[N+](=O)[O-])c1ccc(Br)cc1` (centres undefined): the concentration giving a half-maximal response (EC50) is 16 µM. The result for `O=S(=O)(Nc1cc(Sc2ncn[nH]2)c(O)c2ccccc12)c1ccccc1` reads 5.35 µM; that for `O=[N+]([O-])c1ccc(NCCCNS(=O)(=O)c2ccccc2)c(Cl)c1`, 42.4 µM; that for `Cc1ccc(C=Nc2ccccc2C(N)=O)s1`, 10.8 µM. The result for `O=C(N/N=C/c1ccc([N+](=O)[O-])o1)c1ccc(O)cc1` reads 12 µM.

For the compound `Cc1cc2nc3ccc(=[N+](C)C)cc-3sc2cc1N`, the concentration for a half-maximal effect (EC50) is 1 µM. The value for `O=C(CSCc1ccccc1)N/N=C/c1ccccc1OCc1ccccc1` was 46.6 µM; that for `O=C(N/N=C/c1ccc(Sc2ccccn2)o1)c1cc2ccccc2cc1O` was 35.4 µM; that for `O=C(N/N=C/c1sc2ccccc2c1O)c1cccc2ccccc12` was 3.51 µM. The value for `CO[C@H]1C=CO[C@@]2(C)Oc3c(C)c(O)c4c(O)c(c(C=NN5CCN(C)CC5)c(O)c4c3C2=O)NC(=O)C(C)=CC=C[C@H](C)[C@H](O)[C@@H](C)[C@@H](O)[C@@H](C)[C@H](OC(C)=O)[C@@H]1C` was 33 µM; that for `OC(c1cc(C(F)(F)F)nc2c(Cl)cc(Cl)cc12)C1CCCCN1` (centres undefined) was 12.6 µM; that for `Nc1nonc1-n1nnc(C(=O)N/N=C/c2cc(Br)ccc2O)c1CSC1=NCCS1` was 1.54 µM. The result for `CCCc1cnc(NCCNCC(O)COc2ccc(Cl)c(Cl)c2)nc1` (centres undefined) reads 11.8 µM; that for `Cc1ccc(C(=O)N/N=C/c2cc(Br)ccc2O)cn1`, 1.78 µM.

On to `COc1c(Cl)cnn(-c2ccc(C)cc2)c1=O`, for which the EC50 was 16.5 µM. The result for `c1cnc2c(c1)ccc1cccnc12` reads 3.8 µM. The result for `Cc1ccc(-n2c(C)cc(C3=NNC(=NC4CC4)SC3)c2C)cc1C` reads 21.4 µM; that for `N#CC1=C(N)Oc2c(O)cc3ccccc3c2C1c1ccsc1` (centres undefined), 21.3 µM.

On to `COc1ccc(OC)c(C2C=C(C34CC5CC(CC(C5)C3)C4)NC(=S)N2)c1` (centres undefined), for which the concentration for a half-maximal effect (EC50) is 49.8 µM.

On to `C/C(=N\Nc1nc2ccccc2[nH]1)c1ccccn1`, for which the EC50 was 0.92 µM. Consider `CCOc1cccc(CNc2ccc(O)cc2)c1OCc1ccc(Cl)cc1Cl`, for which the concentration for a half-maximal effect (EC50) is 26.9 µM. The result for `O=[N+]([O-])c1ccc(-n2nnnc2-c2ccccc2)c([N+](=O)[O-])c1` reads 10.1 µM. The value for `O=C(Oc1c(CN2CCOCC2)cc(Cl)c2cccnc12)c1ccc(F)cc1` was 7.06 µM. The result for `Cc1cc(/C=N/NC(=O)c2cccc([N+](=O)[O-])c2)c(C)n1-c1ccc(Cl)cc1Cl` reads 43.9 µM. In the case of `CN(C)c1ccc(O)c2c1CC1CC3[C@@H](N(C)C)C(=O)C(C(N)=O)=C(O)[C@]3(O)C(=O)C1=C2O` (some centres undefined), the EC50 is 37 µM. The result for `CCOc1ccc(CNc2ccc(N3CCCC3)cc2)cc1` reads 11.8 µM; that for `ON=C1/C(=N\O)CC2(C/C1=N/O)OCCO2`, 34.5 µM. The result for `CCOC(=O)COc1ccccc1/C=C\[N+](=O)[O-]` reads 2.85 µM. The value for `N=c1n(CC(=O)c2ccc(Br)s2)c2ccccc2n1Cc1ccccc1` was 7.56 µM. For `Nc1ccc(N(c2ccccc2)c2ccc(N)cc2)cc1`, the EC50 is 4.85 µM.

With `c1ccc(CNc2nc(N3CCN(Cc4ccccc4)CC3)nc3ccccc23)cc1`, the EC50 is 21.6 µM.

On to `COc1cc([N+](=O)[O-])cc(/C=N/NC(=O)c2cccnc2)c1O`, for which the half-maximal effective concentration (EC50) was 32 µM. The value for `c1ccc2cc(CSCc3nc4ccccc4[nH]3)ccc2c1` was 42.6 µM.

Regarding `Fc1ccc(Nc2nc(NCc3ccco3)c3ccccc3n2)cc1`, the EC50 is 6.54 µM. The value for `NC(=NCCCCCCN=C(N)/N=C(\N)Nc1ccc(Cl)cc1)/N=C(\N)Nc1ccc(Cl)cc1` was 3.09 µM and 3.04 µM and 2.9 µM. The value for `O=C(c1ccco1)[C@@H]1[C@@H]2C(=O)N(c3ccc(F)cc3)C(=O)[C@@H]2[C@H]2C=Cc3ccccc3N21` was 23.5 µM; that for `O=C(NC1CCCCC1)C(c1ccncc1)N(Cc1ccccc1)C(=O)c1ccc(-c2ccccc2)[nH]1` (centres undefined) was 22.5 µM; that for `Cc1cc(-c2nnc(-c3ccccc3)c(-c3ccccc3)n2)c(C)o1` was 40.3 µM. In the case of `COc1cccc(/C=N/n2c(C)nc3ccccc3c2=O)c1O`, the concentration for a half-maximal effect (EC50) is 27.7 µM. For `Cc1nc2c(=O)n(C)c(=O)n(C)c2nc1Cl`, the concentration for a half-maximal effect (EC50) is 7.48 µM. With `Cc1ccc(S(=O)(=O)c2c(C(=O)c3ccccc3)cnc3cc4c(cc23)OCCO4)cc1`, the 50% effective concentration (EC50) is 30.2 µM.

For `COc1ccc(C(=O)Oc2c(CN3CCOCC3)cc(Cl)c3cccnc23)cc1`, the 50% effective concentration (EC50) was 6.67 µM. The result for `CCCCCc1ccc(OCCC[n+]2ccccc2)c(CCCCC)c1` reads 2.78 µM; that for `CCOc1ccc(Nc2c3ccccc3nc3ccccc23)cc1`, 1.24 µM. On to `CCCC(=O)NC(c1ccccc1)c1ccc2cccnc2c1O` (centres undefined), for which the EC50 was 0.59 µM. The value for `O=C(NCCNc1ccc([N+](=O)[O-])cc1C(F)(F)F)c1cccc(F)c1` was 47.5 µM. The result for `CCc1ccc(CNc2ccc(O)cc2)cc1` reads 17.1 µM. The value for `Nc1nonc1C(=O)NCCN=Cc1cc(Cc2ccccc2)cc(Br)c1O` was 37.8 µM. `O=C1C(SCCO)=C(SCCO)C(=O)c2ccccc21`: the EC50 was 8.13 µM. As to `COc1cccc(/C=N/Nc2ncc(C(F)(F)F)cc2Cl)c1O`, the EC50 was 0.97 µM. The value for `Cc1cc(/C=N/n2c(COc3ccccc3C)nc3ccccc3c2=O)c(O)c([N+](=O)[O-])c1` was 2.52 µM; that for `Cc1cccc(Sc2c([N+](=O)[O-])ncn2C)c1` was 32 µM; that for `O=c1[nH]c(CSc2ncc(-c3ccc(F)cc3)n2Cc2ccco2)nc2ccccc12` was 47 µM.

Take `Cc1cc(NC(c2cccnc2)c2ccc3cccnc3c2O)no1` (centres undefined): the half-maximal effective concentration (EC50) is 1.79 µM. As for `NC1=NC2(CCCCC2)N=C(Nc2ccc(Br)cc2)N1`, the concentration giving a half-maximal response (EC50) was 2.8 µM. The result for `COc1cccc(Nc2nc(NCC3CCCO3)c3ccccc3n2)c1` (centres undefined) reads 2.88 µM; that for `O=C(N/N=C/C1C(c2ccccc2)C1(Cl)Cl)c1cccc(Cl)c1` (centres undefined), 44 µM.

Consider `Oc1c(CN2CCc3ccccc3C2)cc(Cl)c2cccnc12`, for which the EC50 was 8.71 µM.

For `CC1CCN(c2ccc(NC(=S)NC(=O)c3ccc(-c4cccc([N+](=O)[O-])c4)o3)cc2)CC1`, the concentration for a half-maximal effect (EC50) is 23.1 µM. In the case of `COc1cccc(/C=N/NC(=O)c2ccc(-c3ccccc3)cc2)c1O`, the half-maximal effective concentration (EC50) was 1.08 µM. Regarding `CCc1ccc(C(c2c(C)nn(-c3ccccc3)c2N)c2c(C)nn(-c3ccccc3)c2N)cc1`, the EC50 was 46.1 µM. Consider `CCCc1nc2c(=O)n(C)c(=O)nc-2n(C)n1`, for which the half-maximal effective concentration (EC50) was 2.36 µM. The value for `COc1ccc2c(c1)[nH]c1c(N3CCN(Cc4ccc5c(c4)OCO5)CC3)ncnc12` was 6.85 µM. With `Oc1cccc(/C=N/NC(=S)Nc2cccnc2)c1O`, the concentration for a half-maximal effect (EC50) was 4.11 µM. The value for `Cc1ccc(NC(=O)NCC2CCN(Cc3cccc(Cl)c3)CC2)cc1Cl` was 13.9 µM; that for `Clc1c(OCCCn2ccnc2)ccc2ccccc12` was 35.2 µM.

Take `c1ccc(-c2nnc(-c3ccccn3)nc2NC2CCCCC2)cc1`: the EC50 was 1.37 µM. The result for `CCCc1cc(-c2nc(N)ncc2-c2ccc3c(c2)OCCCO3)c(O)cc1OC` reads 19.9 µM; that for `CN1CCN(C(c2ccc(Br)cc2)c2cc(Cl)c3cccnc3c2O)CC1` (centres undefined), 3.87 µM; that for `CN(CCO)c1cc(Sc2nc3ccccc3s2)c2nonc2c1[N+](=O)[O-]`, 15.8 µM. The value for `O=C1/C(=C/c2ccccc2)NC(=S)N1C(c1ccccc1)c1ccccc1` was 4.48 µM; that for `CCOC(=O)C(C)/C(C)=N/NC(=O)c1cc2ccccc2cc1O` (centres undefined) was 6.99 µM; that for `COc1ccc(-c2c/c(=N\c3nc(-c4ccccc4)c(C)s3)c3ccccc3o2)cc1O` was 2.36 µM.

Take `CCCC(=O)NC(c1ccc(Cl)cc1)c1ccc2cccnc2c1O` (centres undefined): the concentration for a half-maximal effect (EC50) is 0.38 µM. The value for `Cc1cccc(NC(=O)Cn2c(/C=C/c3ccccc3)nc3ccccc32)c1` was 45 µM.

As to `COc1ccc(N(C(=O)CCl)C(C(=O)NCCc2ccccc2)c2cccs2)cc1` (centres undefined), the EC50 was 3.46 µM.

For `Brc1cccc(CNc2nc3ccccc3n2CCN2CCCCC2)c1`, the concentration giving a half-maximal response (EC50) was 26.3 µM. Turning to `Cc1cccc(C)c1NC(=O)CCCSc1nnc(-c2ccc(Cl)cc2)n1-c1ccccc1`, the concentration giving a half-maximal response (EC50) is 27.6 µM. As to `Clc1ccc(CN2CCC(c3nc4ccc(Cl)cc4[nH]3)CC2)cc1`, the EC50 is 29.4 µM.

Consider `Cc1ccc2[nH]c3c(NCc4ccccc4)ncnc3c2c1`, for which the EC50 was 17.1 µM. The value for `O=C(c1ccc(CSc2nc3ccncc3[nH]2)cc1)N1CCN(c2cccc(Cl)c2)CC1` was 15.3 µM; that for `CCN1/C(=C/C=C/c2sc3ccccc3[n+]2CC)Sc2ccccc21` was 0.43 µM; that for `CCOC(=O)Cn1nnnc1C(C(C)C)N(Cc1cccs1)Cc1cc2cc(C)ccc2[nH]c1=O` (centres undefined) was 10.5 µM. The value for `Cc1ccc(C(=O)Sc2cccccc2=O)cc1` was 2.64 µM; that for `CC(=O)Oc1cc2cccc(OC(C)=O)c(=O)c2c(OC(C)=O)c1OC(C)=O` was 14.6 µM. The value for `COc1cnc(-c2ccccn2)[nH]c1=O` was 25.6 µM; that for `Clc1ccc(OCCn2ccnc2)c2ccccc12` was 43.5 µM; that for `O=C1NC2=C(CCc3ccccc32)C(c2ccc(Br)cc2)N1` (centres undefined) was 19.3 µM. Regarding `O=C1C=C(N2CCOCC2)c2ccccc2C1=O`, the half-maximal effective concentration (EC50) is 6.88 µM. The result for `C/C(CC(=O)Nc1ccc(Cl)c(C(F)(F)F)c1)=N\NC(=O)c1cc2ccccc2cc1O` reads 8.06 µM; that for `Cc1cc(C2=NNC(=NC3CC3)SC2)c(C)n1-c1ccccc1`, 46.9 µM. In the case of `Cc1ccc(Nc2nc(NCc3ccco3)c3ccccc3n2)cc1`, the EC50 is 4.34 µM.

Consider `C=CS(=O)(=O)c1ccc(Oc2ccc(S(=O)(=O)C=C)cc2)cc1`, for which the EC50 was 1.4 µM. The value for `CC(C)(C)c1ccc(C(=O)NC(=S)NCc2cccnc2)cc1` was 46.5 µM.

A word on the EC50: it is the concentration needed to bring the measured effect to its halfway point.
